Test results from patent US20210330756A1, “Acetylation of Miro1” (University of South Carolina, priority 2020, published 2021).

System: adult dorsal root ganglion (DRG) neurons
Experiment: Neurite length of dissociated adult DRG neurons cultured on laminin
Format: cell-based, rat
Details: 10 μM, 1 h
Protocol: HDAC6 inhibition increases growth cone size of sensory axons. Given our previous work showing that HDAC6 inhibition allows axons to grow on MAG and CSPG substrates (Rivieccio et al., 2009; Butler et al., 2010), we asked how inhibition of HDAC6 alters axon growth in cultures of adult dorsal root ganglion (DRG) neurons. […] (A) Quantification of neurite length for dissociated DRGs cultured on laminin with addition of HDAC6 inhibitor TubA (10 μm) versus vehicle control (DMSO) over 1 h is shown as average fold-change relative to vehicle±SEM (n≥95 neurons across three independent experiments; NS by one-way ANOVA with Bonferroni post hoc). (B and C) show representative DIC images of distal axons from DRG neurons cultured as in A are shown (B). 1-h TubA treatment appears to increase growth cone size. Analyses of growth cone area across multiple experiments show a significant increase in area after TubA treatment (C). Values are average fold-change±SEM (n≥26 neurons over at least three culture preparations; ***, P≤0.005 by one-way ANOVA with Bonferroni post hoc; scale bar=5 μm; 40×/1.3 NA objective used). […] Prominent HDAC6 signals are seen in distal axons and growth cones (arrows) regardless of TubA exposure. […]
NF-stained cultures were used for neurite growth analyses. […] The growth cone area was measured using ImageJ software from these annotated DIC images. […]

CN1CCc2c(c3ccccc3n2Cc2ccc(C(=O)NO)cc2)C1 [TubA, tubastatin]
neurite length vs vehicle: did not significantly affect neurite length
